Where a name gives a salt, the structure may show the parent alone.
Tested on: NCI-H1417 cells
Test: Proliferation inhibitory activity against NCI-H1417 cells (CellTiter-Glo)
Format: cell-based
Settings: Homo sapiens, 240 h, 10 days incubation, starting concentration 10 μM, read-out: IC50 (nM), NCI-H1417 cell proliferation inhibition
Experimental: Experimental purpose: To detect the inhibitory activity of the compounds against NCI-H1417 cells.
Experimental materials: RPMI 1640 medium, fetal bovine serum, Promega CellTiter-Glo reagent. The NCI-H1417 cell line was purchased from ATCC. Envision multilabel analyzer (PerkinElmer).
Experimental method: The compounds were dissolved to 10 mM, and the compounds were diluted 5 times with DMSO in the compound plate. The starting concentration of the compound was 2 mM, diluted 3 times with Bravo to 10 concentrations. Echo was used to transfer 250 nL to the top and bottom double wells of a blank 384 cell plate, and 250 nL of DMSO/compound was added to a cell suspension of 1000 cells/50 μL per well, and the compounds were diluted 200 times, i.e. the starting concentration was 10 μM. Cell plates were incubated in a carbon dioxide incubator for 10 days. 25 μL of Promega CellTiter-Glo reagent per well was added to the cell plate, and the mixture was shaken for 10 minutes at room temperature to stabilize the luminescence signal. Readings were taken using a PerkinElmer Envision multilabel analyzer.
Data analysis: The equation (Max-Ratio)/(Max-Min)*100% was used to convert the original data into inhibition rate, the IC50 value can be obtained by curve fitting with four parameters. (derived from 205 mode in XLFIT5, iDBS)

An IC50 of 107 nM was found for `CC(C)(O)Cn1nnc2cc(-c3cn(CC(=O)N4CCC[C@@H](N)C4)nc3-c3ccc(C#N)c(F)c3)ccc21` [Hydrochloride of compound 22] in this work.

— patent US11524941B2, “Pyrazole compounds as LSD1 inhibitors and applications thereof” (MEDSHINE DISCOVERY INC., priority 2020, dated 2022)
